How the values were obtained:
DYRK1B = details: Target DYRK1B; NCGC compounds; cited from earlier work
[1] = target: DYRK and CLK family kinases; details: cited from earlier work
[2] = system: endogenous NKX3.1 in LNCaP cells; test: Endogenous NKX3.1 half-life in LNCaP cells exposed to cycloheximide, immunoblot; assay type: cell-based, human

| SMILES | IC50 (DYRK1B) [nM] | Kinase specificity (in words) [1] | Effect on NKX3.1 half-life / degradation (in words) [2] |
| --- | --- | --- | --- |
| CN(Cc1cccs1)c1ncnc2ccc(-c3ccc4c(c3)OCO4)cc12 [NCGC00185984] | 72 | no specificity for CLK kinases |  |
| Cc1nc(CNc2ncnc3ccc(-c4ccc5c(c4)OCO5)cc23)cs1 [NCGC00185963] | 1510 |  |  |
| c1coc(CCNc2ncnc3ccc(-c4ccc5c(c4)OCO5)cc23)c1 [NCGC00185976] | 103 |  |  |
| Cc1nc(CN(C)c2ncnc3ccc(-c4ccc5c(c4)OCO5)cc23)cs1 [NCGC00185981] | 25 | specificity against both DYRK and CLK family kinases | most active compound |

Source: PMC4511920 (Molecular cancer research : MCR, 2015)
